Reference: patent publication US8329843B2, “Method for producing amide compound” (Mitsui Chemicals, Inc., priority 2005, dated 2012)

System: microbial cell containing a nitrile hydratase
Type: biochemical
Details: benzene 26 ppm or acrolein 2 ppm in raw material acrylonitrile; more wet microbial cell needed
Experimental: There were prepared a 1-liter glass flask equipped with a stirrer as a first reactor and a Teflon (trademark) tube with an inside diameter of 5 mm and a length of 20 m as a second reactor. To the first reactor was charged 400 g of water in advance.
In accordance with the method described in Japanese Patent Application Laid-Open Publication No. 2001-340091, a microbial cell containing a nitrile hydratase was cultured and the resulting wet microbial cell was suspended in a 0.3 mM-NaOH aqueous solution. The suspension and the acrylonitrile b were continuously fed into the first reactor under stirring at a rate of 49 g/h and 31 g/h, respectively. In addition, the reaction solution was continuously taken out from the first reactor at a rate of 80 g/h so that the liquid level of the first reactor was maintained constant. The liquid taken out was continuously fed into the second reactor at a rate of 80 g/h and the reaction was further performed in the second reactor. […]
The amount of the wet microbial cell added to the 0.3 mM-NaOH aqueous solution was adjusted so that the conversion rate to acrylamide at the outlet of the first reactor was 90% or higher and the concentration of acrylonitrile at the outlet of the second reactor was at the detection limit or less (100 ppm or less). The conversion rate to acrylamide was determined by the analysis of HPLC. […]

SMILES	inhibition of reaction by impurity in acrylonitrile
C=CC=O [acrolein]	inhibition of reaction by acrolein was confirmed
c1ccccc1 [benzene]	inhibition of reaction by benzene was confirmed
